In one assay the test system is mouse vas deferens. The settings on record: isolated mouse vas deferens; cited from earlier work. An excerpt:
On comparing the data with a wider range of pharmacological assays carried in vitro or in vivo, noticeable discrepancies are only apparent for a number of synthetic peptides that are known as NOP partial agonists. Such divergences are likely explained by the variations in stimulus/response coupling efficiency that characterize different pharmacological preparations. In fact, in accordance with classical receptor theory, the effect of a partial agonist can range from none to an almost full response, depending on the extent of amplification that the sensitivity of the signaling pathway exerts on ... || Also the estimates of antagonist potency derived from BRET analysis were in substantial agreement with similar determinations made in a variety of different pharmacological studies. […] We found, however, that a 3-fold increase in ...

The next assay has as its target NOP receptor. The settings on record: cited from earlier work.
Assay [1] has as its target Human NOP Rluc-tagged fusion protein (N/OFQ peptide receptor fused to Renilla luciferase) (human) (UniProt P41146).

Sequence of Human NOP Rluc-tagged fusion protein (N/OFQ peptide receptor fused to Renilla luciferase) (human) (P41146 whole entry, the tested form may be a part): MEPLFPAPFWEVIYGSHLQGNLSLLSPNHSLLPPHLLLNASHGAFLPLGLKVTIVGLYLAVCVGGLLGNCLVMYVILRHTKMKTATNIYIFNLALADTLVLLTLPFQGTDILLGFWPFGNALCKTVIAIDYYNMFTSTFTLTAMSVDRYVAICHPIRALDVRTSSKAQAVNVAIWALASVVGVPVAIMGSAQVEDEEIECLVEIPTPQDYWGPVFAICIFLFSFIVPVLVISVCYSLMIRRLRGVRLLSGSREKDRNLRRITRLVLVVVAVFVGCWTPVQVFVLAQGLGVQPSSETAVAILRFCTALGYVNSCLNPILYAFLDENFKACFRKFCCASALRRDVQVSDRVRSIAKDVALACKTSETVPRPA

In the case of `Cc1cccc2c1CC[C@H](CN1CCC(c3c(Cl)cccc3Cl)CC1)C[C@@H]2O` [SB-612111, (-)-cis-1-methyl-7-[[4-(2,6-dichlorophenyl)piperidin-1-yl]methyl]-6,7,8,9-tetrahy dro-5H-benzocyclohepten-5-ol], the “reversibility of antagonist action on washing” value in the assay with mouse vas deferens is recorded as “remains unchanged even after 3 hours of repeated washing”. The “antagonist potency estimate (pKB), [^35S]GTPγS binding” value at NOP receptor was 9.70. Regarding UFP-101 (peptide), the pA2, rightward shift of the concentration-response curve of N/OFQ for arrestin coupling (BRET, whole cells); value as the sentence prints it, differs from Table 3 (pA2 (-log10 M)) in assay [1] is 9.42.

The record behind these values is paper PMC4527783 (PLoS ONE, 2015).
